Publication PMC12136037, “Type II kinase inhibitors that target Parkinson’s disease–associated LRRK2” (Science Advances, 2025)
Where “and” joins values, the source holds several entries; their conditions need not be identical. Equal values may be shown once. One block for each compound: values may come before it.

How the values were obtained:
[1] = target: T1, ~100 representative kinases (Homo sapiens, UniProt Q16654); assay: DSF 100 kinase selectivity screen; type: binding; settings: protein PDK4; average of three replicates;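 also: compound tested at 20 µM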
T1 construct: Recombinant protein kinase domains with a concentration of 2 μM
T1 sequence (Q16654 whole entry, the tested form may be a part): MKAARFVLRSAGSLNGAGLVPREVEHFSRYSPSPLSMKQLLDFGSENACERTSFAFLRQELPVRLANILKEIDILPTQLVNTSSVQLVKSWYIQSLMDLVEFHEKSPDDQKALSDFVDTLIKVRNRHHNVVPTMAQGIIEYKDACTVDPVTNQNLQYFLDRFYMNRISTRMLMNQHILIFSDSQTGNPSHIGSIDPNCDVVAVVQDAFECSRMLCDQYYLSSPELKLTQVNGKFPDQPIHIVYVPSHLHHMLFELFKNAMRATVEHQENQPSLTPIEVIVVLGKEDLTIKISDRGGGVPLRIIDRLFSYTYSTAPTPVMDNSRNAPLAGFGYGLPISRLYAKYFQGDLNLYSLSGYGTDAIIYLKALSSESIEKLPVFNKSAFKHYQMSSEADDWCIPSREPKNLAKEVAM
Summary of the method: (§1)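 Each kinase domain, at 2 μM, is mixed with 20 μM test compound and SYPRO Orange in Hepes (20 mM, pH 7.5) with 500 mM NaCl. Temperature is then raised at 3°C/min and fluorescence-monitored unfolding yields the melting temperature change, ΔTm in degrees Celsius.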

[2] = target: T2, ~100 representative kinases (Homo sapiens, UniProt Q9BRS2); assay: DSF 100 kinase selectivity screen; type: binding; settings: Protein RIOK1; DSF; average of three replicates;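 also: compound tested at 20 µM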
T2 construct: Recombinant protein kinase domains with a concentration of 2 μM
T2 sequence (Q9BRS2 1-568): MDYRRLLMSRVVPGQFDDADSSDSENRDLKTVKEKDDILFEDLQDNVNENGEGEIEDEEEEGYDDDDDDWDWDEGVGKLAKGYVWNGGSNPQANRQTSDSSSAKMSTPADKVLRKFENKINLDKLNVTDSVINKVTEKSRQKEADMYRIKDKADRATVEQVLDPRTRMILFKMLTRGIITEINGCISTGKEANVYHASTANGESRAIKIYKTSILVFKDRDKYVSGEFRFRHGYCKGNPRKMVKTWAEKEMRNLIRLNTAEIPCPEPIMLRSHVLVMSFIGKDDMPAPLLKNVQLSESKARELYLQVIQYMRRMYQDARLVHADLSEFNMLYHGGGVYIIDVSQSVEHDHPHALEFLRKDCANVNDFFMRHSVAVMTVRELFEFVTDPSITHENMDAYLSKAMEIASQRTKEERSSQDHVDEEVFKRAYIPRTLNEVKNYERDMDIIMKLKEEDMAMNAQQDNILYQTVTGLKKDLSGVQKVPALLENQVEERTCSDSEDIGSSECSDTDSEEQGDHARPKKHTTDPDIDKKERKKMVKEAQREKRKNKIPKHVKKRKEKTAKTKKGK
Summary of the method: as §1

LRRK2 = target: T3, LRRK2 (Homo sapiens, UniProt Q5S007); assay: Western blot of Rab8a phosphorylation (pT72) in 293T cells transfected with wild-type LRRK2 and GFP-Rab8a; type: cell-based; settings: for toxicity / effect on phosphorylation of Rab8a in cells: 293T cells; for toxicity: any of the concentrations used; for effect on phosphorylation of Rab8a in cells: increasing concentrations
T3 construct: wild-type full-length LRRK2 (pcDNA5-LRRK2, RRID: Addgene_229019)
T3 sequence (Q5S007 whole entry): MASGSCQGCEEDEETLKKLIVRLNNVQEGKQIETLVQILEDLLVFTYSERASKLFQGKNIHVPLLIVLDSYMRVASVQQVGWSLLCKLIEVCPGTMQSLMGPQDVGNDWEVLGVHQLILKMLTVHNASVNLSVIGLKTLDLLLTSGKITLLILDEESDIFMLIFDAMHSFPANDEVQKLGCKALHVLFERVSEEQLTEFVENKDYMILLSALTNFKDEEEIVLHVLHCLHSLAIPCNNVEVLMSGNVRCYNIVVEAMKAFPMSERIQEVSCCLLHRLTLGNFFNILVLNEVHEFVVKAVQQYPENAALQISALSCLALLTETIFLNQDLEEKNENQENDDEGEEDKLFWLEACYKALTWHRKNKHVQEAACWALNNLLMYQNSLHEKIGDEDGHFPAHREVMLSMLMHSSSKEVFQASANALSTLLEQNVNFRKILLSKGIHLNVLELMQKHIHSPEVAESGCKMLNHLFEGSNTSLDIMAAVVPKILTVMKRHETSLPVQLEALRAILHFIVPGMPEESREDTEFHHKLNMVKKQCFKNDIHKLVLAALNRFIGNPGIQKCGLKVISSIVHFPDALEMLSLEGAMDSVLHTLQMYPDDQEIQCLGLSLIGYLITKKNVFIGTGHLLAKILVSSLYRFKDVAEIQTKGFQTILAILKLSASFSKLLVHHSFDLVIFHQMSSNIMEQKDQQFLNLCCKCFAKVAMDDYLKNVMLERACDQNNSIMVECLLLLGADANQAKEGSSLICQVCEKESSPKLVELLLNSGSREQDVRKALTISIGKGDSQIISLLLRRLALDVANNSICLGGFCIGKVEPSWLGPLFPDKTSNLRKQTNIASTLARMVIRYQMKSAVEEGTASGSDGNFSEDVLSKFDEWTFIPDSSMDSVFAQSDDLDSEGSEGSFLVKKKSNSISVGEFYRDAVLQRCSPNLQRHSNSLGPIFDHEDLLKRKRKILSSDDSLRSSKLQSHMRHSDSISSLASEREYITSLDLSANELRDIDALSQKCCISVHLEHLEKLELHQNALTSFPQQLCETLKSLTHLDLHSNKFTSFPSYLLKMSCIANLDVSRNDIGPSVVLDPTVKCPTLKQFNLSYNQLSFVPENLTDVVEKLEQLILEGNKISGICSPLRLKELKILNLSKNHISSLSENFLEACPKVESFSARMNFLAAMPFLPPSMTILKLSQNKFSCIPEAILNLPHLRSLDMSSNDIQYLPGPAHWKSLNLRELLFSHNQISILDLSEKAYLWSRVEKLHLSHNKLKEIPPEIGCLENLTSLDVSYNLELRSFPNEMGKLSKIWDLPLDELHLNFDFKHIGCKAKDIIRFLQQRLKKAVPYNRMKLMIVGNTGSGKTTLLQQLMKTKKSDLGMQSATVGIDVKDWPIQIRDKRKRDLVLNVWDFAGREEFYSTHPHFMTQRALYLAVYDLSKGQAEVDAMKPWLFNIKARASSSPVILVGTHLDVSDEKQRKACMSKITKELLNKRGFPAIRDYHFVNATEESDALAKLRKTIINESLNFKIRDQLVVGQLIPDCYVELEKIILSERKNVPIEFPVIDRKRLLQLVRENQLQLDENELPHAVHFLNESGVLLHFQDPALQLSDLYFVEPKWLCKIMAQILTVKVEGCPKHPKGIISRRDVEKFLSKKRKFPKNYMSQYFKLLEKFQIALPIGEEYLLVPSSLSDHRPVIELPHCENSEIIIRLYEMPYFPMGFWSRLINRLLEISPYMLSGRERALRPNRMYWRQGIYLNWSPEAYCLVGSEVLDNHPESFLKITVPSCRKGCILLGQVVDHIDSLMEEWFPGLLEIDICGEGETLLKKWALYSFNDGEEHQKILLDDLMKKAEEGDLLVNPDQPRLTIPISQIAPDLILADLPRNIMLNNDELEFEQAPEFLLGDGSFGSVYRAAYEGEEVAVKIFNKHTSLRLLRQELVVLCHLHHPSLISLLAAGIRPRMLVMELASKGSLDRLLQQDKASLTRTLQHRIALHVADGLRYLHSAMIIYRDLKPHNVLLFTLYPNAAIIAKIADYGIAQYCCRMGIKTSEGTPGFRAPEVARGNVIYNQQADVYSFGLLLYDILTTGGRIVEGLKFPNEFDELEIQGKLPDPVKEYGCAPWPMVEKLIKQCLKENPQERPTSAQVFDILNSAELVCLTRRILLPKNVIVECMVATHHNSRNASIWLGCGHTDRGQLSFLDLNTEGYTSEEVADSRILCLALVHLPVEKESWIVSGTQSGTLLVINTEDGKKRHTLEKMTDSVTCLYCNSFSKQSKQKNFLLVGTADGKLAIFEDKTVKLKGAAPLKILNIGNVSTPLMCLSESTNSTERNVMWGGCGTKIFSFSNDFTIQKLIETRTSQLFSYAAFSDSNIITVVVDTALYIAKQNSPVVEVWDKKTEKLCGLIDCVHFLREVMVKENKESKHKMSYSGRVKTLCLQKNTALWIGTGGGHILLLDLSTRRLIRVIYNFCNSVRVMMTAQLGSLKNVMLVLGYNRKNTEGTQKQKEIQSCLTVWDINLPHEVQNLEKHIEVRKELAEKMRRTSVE
Experimental: For all in cell kinase assays, after 48 hours, transfected cells were treated with either DMSO (control) or the indicated inhibitors for 4 hours at 37°C and 5% CO2. Following treatments, cells were washed three times with ice cold PBS. Cells were then lysed in ice cold radioimmunoprecipitation assay (RIPA) lysis buffer [50 mM tris (pH 8.0), 150 mM NaCl, 1% Triton X-100, 0.1% SDS, 0.5% sodium deoxycholate, and 1 mM DTT] in the presence of complete mini EASYpack protease inhibitor cocktail and the PhosSTOP EASYpack phosphatase inhibitor cocktail (Roche). Resuspended and lysed cells were clarified by centrifugation at 13,000g for 15 min at 4°C. […] The membrane was blocked in 5% milk in 1× Tris-buffered saline (TBS) [20 mM tris (pH 8.0) and 150 mM NaCl] for 1 hour shaking at room temperature. […] Membranes were then washed three times in 1× TBS-T before imaging on Li-COR Odyssey CLx controlled by Imaging Studio software (www.licorbio.com/image-studio, RRID:SCR_015795). […] The signal intensity of each band was assessed using the Analyze>Gels tool. The band intensity for phosphorylated LRRK2 was measured and compared to total LRRK2 levels (run under identical conditions on a separate gel). Band intensity for phosphorylated Rab7 or Rab8a was measured and compared against total GFP-Rab7 or GFP-Rab8a (using anti-GFP antibody) and LRRK1/LRRK2 levels as appropriate. Comparative statistical analysis of phosphorylation levels was analyzed using a one-way analysis of variance (ANOVA) and corrected using Tukey’s multiple comparisons test in GraphPad Prism 10 (www.graphpad.com/, RRID:SCR_002798).

[3] = GFP-11 tagged WT LRRK2, 5 μM, 4 replicates

dTm [1]: -0.54 K | dTm [2]: 4.09 K
SMILES: Cc1ccc(C(=O)Nc2ccc(CN3CCN(C)CC3)c(C(F)(F)F)c2)cc1C#Cc1c[nH]c2ncnc(N3CCOCC3)c12 [Compound 1]

pRab8/Rab8/LRRK2 normalized to DMSO, Mean (LRRK2; 250 nM, 4 h, 3 replicates): 1.123 | pRab8/Rab8/LRRK2 normalized to DMSO (LRRK2; 250 nM, 4 h, individual Western blots, listed as 277): 1.0545 and 1.033 and 1.2826 | pRab8/Rab8/LRRK2 normalized to DMSO, Mean (LRRK2; 500 nM, 4 h, 3 replicates): 0.8664 | pRab8/Rab8/LRRK2 normalized to DMSO (LRRK2; 500 nM, 4 h, individual Western blots, listed as 277): 0.8279 and 0.7001 and 1.071 | pRab8/Rab8/LRRK2 normalized to DMSO, Mean (LRRK2; 1 μM, 4 h, 3 replicates): 0.8611 | pRab8/Rab8/LRRK2 normalized to DMSO (LRRK2; 1 μM, 4 h, individual Western blots, listed as 277): 0.8817 and 0.6143 and 1.087 | pRab8/Rab8/LRRK2 normalized to DMSO, Mean (LRRK2; 5 μM, 4 h, 3 replicates): 0.2926 | pRab8/Rab8/LRRK2 normalized to DMSO (LRRK2; 5 μM, 4 h, individual Western blots, listed as 277): 0.3266 and 0.2385 and 0.3127 | pRab8/Rab8/LRRK2 normalized to DMSO, Mean (LRRK2; 10 μM, 4 h, 3 replicates): 0.2543 | pRab8/Rab8/LRRK2 normalized to DMSO (LRRK2; 10 μM, 4 h, individual Western blots, listed as 277): 0.2723 and 0.2085 and 0.282 | pRab8/Rab8/LRRK2 normalized to DMSO, Mean (LRRK2; [3]): 0.2436 | pRab8/Rab8/LRRK2 normalized to DMSO (LRRK2; GFP-11 tagged WT LRRK2, 5 μM, individual blots, normalized to WT DMSO, listed as RN277): 0.1001 and 0.2331 and 0.598 and 0.04303
SMILES: Cc1ccc(-n2nc(C(C)(C)C)cc2NC(=O)Nc2cccc(-c3c[nH]c4nc(Cl)nc(N5CCOCC5)c34)c2)cc1 [Compound 30]
toxicity (LRRK2): Toxicity did not appear to be an issue | effect on phosphorylation of Rab8a in cells (LRRK2): reduced phosphorylation of Rab8a in a dose-dependent manner

SMILES: CCSc1nc(NC)c2c(-c3cccc(NC(=O)Nc4cc(C(C)(C)C)nn4-c4ccc(C)cc4)c3)c[nH]c2n1 [Compound 32]
pRab8/Rab8/LRRK2 normalized to DMSO, Mean (LRRK2; 250 nM, 4 h, 3 replicates): 1.109 | pRab8/Rab8/LRRK2 normalized to DMSO (LRRK2; 250 nM, 4 h, individual Western blots, listed as 341): 1.128 and 0.9817 and 1.217 | pRab8/Rab8/LRRK2 normalized to DMSO, Mean (LRRK2; 500 nM, 4 h, 3 replicates): 0.9957 | pRab8/Rab8/LRRK2 normalized to DMSO (LRRK2; 500 nM, 4 h, individual Western blots, listed as 341): 1.05 and 0.7587 and 1.178 | pRab8/Rab8/LRRK2 normalized to DMSO, Mean (LRRK2; 1 μM, 4 h, 3 replicates): 0.8556 | pRab8/Rab8/LRRK2 normalized to DMSO (LRRK2; 1 μM, 4 h, individual Western blots, listed as 341): 0.8182 and 0.7772 and 0.9713 | pRab8/Rab8/LRRK2 normalized to DMSO, Mean (LRRK2; 5 μM, 4 h, 3 replicates): 0.5047 | pRab8/Rab8/LRRK2 normalized to DMSO (LRRK2; 5 μM, 4 h, individual Western blots, listed as 341): 0.5692 and 0.3629 and 0.5821 | pRab8/Rab8/LRRK2 normalized to DMSO, Mean (LRRK2; 10 μM, 4 h, 3 replicates): 0.408 | pRab8/Rab8/LRRK2 normalized to DMSO (LRRK2; 10 μM, 4 h, individual Western blots, listed as 341): 0.4385 and 0.2564 and 0.5293 | toxicity (LRRK2): Toxicity did not appear to be an issue | effect on phosphorylation of Rab8a in cells (LRRK2): reduced phosphorylation of Rab8a in a dose-dependent manner | pRab8/Rab8/LRRK2 normalized to DMSO, Mean (LRRK2; [3]): 0.2782 | pRab8/Rab8/LRRK2 normalized to DMSO (LRRK2; GFP-11 tagged WT LRRK2, 5 μM, individual blots, normalized to WT DMSO, listed as RN341): 0.1752 and 0.6963 and 0.1155 and 0.1257

dTm [1]: -0.0168 K | dTm [2]: -0.09 K
SMILES: CCNc1nc(Nc2cc(F)c(C(=O)N3CCOCC3)cc2OC)ncc1C(F)(F)F [GNE-7915]

SMILES: Cc1ccc(C(=O)Nc2ccc(CN3CCN(C)CC3)c(C(F)(F)F)c2)cc1C#Cc1cnc2[nH]ncc2c1 [GZD-824, reference compound]
dTm [1]: -0.28 K | dTm [2]: 2.49 K

SMILES: C[C@@H]1CN(c2cc(-c3n[nH]c4ccc(OC5(C)CC5)cc34)ncn2)C[C@H](C)O1 [MLi2]
dTm [1]: -0.0742 K | dTm [2]: -1.66 K

SMILES: Cn1cc(-c2c[nH]c3ncnc(N4CCOCC4)c23)cc1C#N [PFE-360]
dTm [1]: -0.55 K | dTm [2]: -0.58 K

SMILES: Cc1ccc(C(=O)Nc2ccc(CN3CCN(C)CC3)c(C(F)(F)F)c2)cc1C#Cc1cnc2cccnn12 [Ponatinib, reference compound]
dTm [1]: -0.09 K | dTm [2]: 1.86 K | pRab8/Rab8/LRRK2 normalized to DMSO, Mean (LRRK2; 5 μM, 4 h, 3 replicates): 0.2682 | pRab8/Rab8/LRRK2 normalized to DMSO (LRRK2; 5 μM, 4 h, individual Western blots): 0.2608 and 0.2643 and 0.2795
